Experimental findings from patent US20250026721A1, “COMPOUNDS AND METHODS FOR MODULATING RAS-PI3K” (Vividion Therapeutics, Inc., priority 2023, published 2025) are described below.

The experiment deals with T1, PIK3CA (Homo sapiens, UniProt P42336).
T1 construct: endogenous in cells; host or cells: Jurkat cell lysate
In words: In vitro ELISA target engagement assay for PIK3CA in Jurkat cellular lysate (competition with PIK3CA Biotin Probe). In kind it is binding. The note with it: 1 hour at rt, then 500 nM PIK3CA Biotin Probe, read-out: Elisa Target Engagement Assay (TE50). The method, then:
Example 3. In Vitro ELISA Target Engagement Assay for […] Engagement of compounds on PIK3CA were assessed in Jurkat cellular lysate via a sandwich ELISA. A solution of PIK3CA Biotin Probe was generated at 10 mM and used in the biological testing. […] Treatment Protocol: Jurkat cellular lysate was generated from frozen cell pellets. Cells were thawed on ice and resuspended in cold Dulbecco's phosphate buffered saline (DPBS) (12 mL/300 e^6 cells) then lysed by probe sonication (12×3 second pulses). Jurkat lysate was plated (50 μl/well) in Armadillo 96 well PCR plates (Thermo Fisher catalog number AB2396). The lysate was treated with serial dilutions of test compounds up to 200 μM and incubated for 1 hour at rt. Following compound incubation, PIK3CA Biotin Probe was added to a final concentration of 500 nM, and lysate was mixed by pipetting gently and incubated for an additional 1 hour at rt. The mixture was then diluted in 75 μL Dilution buffer. The mixture was centrifuged for 5 minutes at 4122 g and stored at −80° C. until ELISA TE detection. ELISA TE Detection: Quantification of PIK3CA TE was initiated by coating of the ELISA plate (Thermo Scientific White 384-Well Immuno plates; Thermo Fisher catalog number 460372). The capture antibody was diluted in plating buffer (1:83) and added to the ELISA plate, 20 μl/well, overnight at 4° C. The plate was then washed twice with PBST, 100 μl/well, and blocked with addition of blocking buffer (100 μl/well, 1 hour at rt). During block, treated and probe labeled lysate was thawed. After Block, the block buffer was removed and the thawed lysate was added to the ELISA plate, 30 μl/well, for 1.5 hours at rt. Following lysate incubation, the assay plate was washed 3 times with PBST, 100 μl/well. The Neutravidin-HRP was then diluted (1:500 in dilution buffer) and added for 1 hour at rt, 20 μl/well. Following incubation, the assay plate was washed 4 times with PBST, 100 μl/well, HRP substrate was added to plate, 20 μl/well and luminescence signal was read (Clariostar Plate Reader). For each compound the potency of target engagement (TE50) was determined using Graphpad Prism.
For orientation: ELISA stands for enzyme-linked immunosorbent assay.

T1 sequence (P42336 whole entry): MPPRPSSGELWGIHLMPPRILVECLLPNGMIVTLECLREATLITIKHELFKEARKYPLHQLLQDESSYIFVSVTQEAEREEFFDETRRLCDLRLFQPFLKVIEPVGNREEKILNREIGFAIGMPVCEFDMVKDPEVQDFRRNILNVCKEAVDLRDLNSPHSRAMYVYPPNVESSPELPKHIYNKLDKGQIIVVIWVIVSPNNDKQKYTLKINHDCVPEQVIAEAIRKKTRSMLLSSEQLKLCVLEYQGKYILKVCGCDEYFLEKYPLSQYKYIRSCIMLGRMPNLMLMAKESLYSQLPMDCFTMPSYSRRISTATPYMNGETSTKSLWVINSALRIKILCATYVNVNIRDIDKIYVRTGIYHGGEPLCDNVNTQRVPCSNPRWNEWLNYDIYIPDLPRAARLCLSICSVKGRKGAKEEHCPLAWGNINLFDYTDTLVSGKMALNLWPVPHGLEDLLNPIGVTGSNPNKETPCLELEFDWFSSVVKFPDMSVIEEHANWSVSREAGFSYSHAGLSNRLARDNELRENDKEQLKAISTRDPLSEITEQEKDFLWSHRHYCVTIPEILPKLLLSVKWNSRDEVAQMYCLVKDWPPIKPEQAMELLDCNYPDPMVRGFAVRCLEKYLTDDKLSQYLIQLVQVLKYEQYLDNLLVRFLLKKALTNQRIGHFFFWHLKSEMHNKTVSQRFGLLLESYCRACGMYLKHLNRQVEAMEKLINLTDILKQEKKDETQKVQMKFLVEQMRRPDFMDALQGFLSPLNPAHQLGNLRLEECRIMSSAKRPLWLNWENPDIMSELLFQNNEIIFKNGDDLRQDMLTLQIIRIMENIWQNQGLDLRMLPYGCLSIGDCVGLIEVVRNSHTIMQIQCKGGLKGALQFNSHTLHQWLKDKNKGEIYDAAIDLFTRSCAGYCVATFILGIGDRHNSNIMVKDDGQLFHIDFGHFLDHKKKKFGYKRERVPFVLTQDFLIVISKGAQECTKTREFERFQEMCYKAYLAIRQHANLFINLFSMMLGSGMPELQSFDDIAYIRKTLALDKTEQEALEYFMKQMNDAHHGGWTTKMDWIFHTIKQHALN
T1 sequence (P27986 whole entry partner): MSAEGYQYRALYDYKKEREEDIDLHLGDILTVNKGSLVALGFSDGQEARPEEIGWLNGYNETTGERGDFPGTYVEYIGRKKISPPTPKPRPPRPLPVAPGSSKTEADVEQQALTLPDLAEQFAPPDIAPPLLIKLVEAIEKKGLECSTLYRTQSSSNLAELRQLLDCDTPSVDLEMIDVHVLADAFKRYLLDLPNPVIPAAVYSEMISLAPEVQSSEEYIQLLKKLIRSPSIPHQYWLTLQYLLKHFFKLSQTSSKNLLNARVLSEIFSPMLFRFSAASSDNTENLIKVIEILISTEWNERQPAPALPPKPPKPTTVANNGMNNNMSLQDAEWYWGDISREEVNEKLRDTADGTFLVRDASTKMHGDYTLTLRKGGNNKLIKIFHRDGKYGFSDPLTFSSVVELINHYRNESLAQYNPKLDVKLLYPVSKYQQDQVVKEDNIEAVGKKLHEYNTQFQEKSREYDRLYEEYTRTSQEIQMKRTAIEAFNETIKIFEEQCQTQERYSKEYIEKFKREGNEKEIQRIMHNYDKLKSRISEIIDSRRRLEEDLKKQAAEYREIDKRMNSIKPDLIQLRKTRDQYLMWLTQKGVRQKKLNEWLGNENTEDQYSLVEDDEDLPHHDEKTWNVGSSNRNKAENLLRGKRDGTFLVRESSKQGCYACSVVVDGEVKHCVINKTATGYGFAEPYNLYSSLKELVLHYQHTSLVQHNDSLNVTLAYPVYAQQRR

As to `COCCc1cccc(-c2cc(Cl)ccc2S(=O)(=O)N2CCC(F)(C(=O)N[C@@H](C)/C=C\S(C)(=O)=O)CC2)c1` [Compound 125, (S,Z)-1-((5-chloro-3′-(2-methoxyethyl)-[1,1′-biphenyl]-2-yl)sulfonyl)-4-fluoro-N-(4-(methylsulfonyl)but-3-en-2-yl)piperidine-4-carboxamide], the IC50 came to 610 nM.

For `C[C@H](/C=C\S(C)(=O)=O)NC(=O)C1(F)CCN(C(=O)[C@H]2CN(C(=O)c3ccccc3)C[C@H]2c2ccccc2Cl)CC1` [Compound 162, 1-((3R,4R)-1-benzoyl-4-(2-chlorophenyl)pyrrolidine-3-carbonyl)-4-fluoro-N-((R,Z)-4-(methylsulfonyl)but-3-en-2-yl)piperidine-4-carboxamide], the IC50 stood at 770 nM.

`C[C@H](/C=C/C(=O)N1CC(F)(F)C1)NC(=O)[C@]1(F)CCN(S(=O)(=O)c2ccc(C(F)(F)F)cc2-c2ccccc2Cl)[C@H](C)C1` [Compound 152, (2R,4S)-1-((2′-chloro-5-(trifluoromethyl)-[1,1′-biphenyl]-2-yl)sulfonyl)-N-((R,E)-5-(3,3-difluoroazetidin-1-yl)-5-oxopent-3-en-2-yl)-4-fluoro-2-methylpiperidine-4-carboxamide]: the IC50 came out at 450 nM.

With `COc1ccc(S(=O)(=O)N2CCC(F)(C(=O)N[C@H](/C=C\S(C)(=O)=O)CC(F)(F)F)CC2)c(-c2ccccc2Cl)c1` (single isomer, unassigned) [Compound 239, (*S,Z)-1-((2′-chloro-5-methoxy-[1,1′-biphenyl]-2-yl)sulfonyl)-4-fluoro-N-(5,5,5-trifluoro-1-(methylsulfonyl)pent-1-en-3-yl)piperidine-4-carboxamide], the IC50 came out at 280 nM.

Take `C[C@H](/C=C\S(C)(=O)=O)NC(=O)C1(F)CCN(S(=O)(=O)c2cnc(C(F)(F)F)cc2-c2cccc(F)c2Cl)CC1` [Compound 209, (R,Z)-1-((4-(2-chloro-3-fluorophenyl)-6-(trifluoromethyl)pyridin-3-yl)sulfonyl)-4-fluoro-N-(4-(methylsulfonyl)but-3-en-2-yl)piperidine-4-carboxamide]: the IC50 came out at 240 nM.

For `C[C@H](/C=C\S(C)(=O)=O)NC(=O)C1(F)CCN(S(=O)(=O)c2ccc(Cl)cc2-c2ccccc2Cl)CC1` [Compound 23, (R,Z)-1-((2′,5-dichloro-[1,1′-biphenyl]-2-yl)sulfonyl)-4-fluoro-N-(4-(methylsulfonyl)but-3-en-2-yl)piperidine-4-carboxamide], the IC50 was 91 nM.

Consider `C[C@H](/C=C\S(C)(=O)=O)NC(=O)C1(F)CCN(S(=O)(=O)c2ccc(Br)cc2-c2cccc(F)c2Cl)CC1` [Compound 52, (R,Z)-1-((5-bromo-2′-chloro-3′-fluoro-[1,1′-biphenyl]-2-yl)sulfonyl)-4-fluoro-N-(4-(methylsulfonyl)but-3-en-2-yl)piperidine-4-carboxamide], for which the IC50 was 140 nM.

As for `C[C@H](/C=C\S(C)(=N)=O)NC(=O)C1(F)CCN(S(=O)(=O)c2ccc(Br)cc2-c2ccccc2Cl)CC1` (mixture of isomers) [Compound 73, 1-((5-bromo-2′-chloro-[1,1′-biphenyl]-2-yl)sulfonyl)-4-fluoro-N-((2R,Z)-4-(S-methylsulfonimidoyl)but-3-en-2-yl)piperidine-4-carboxamide], the IC50 was 304 nM.

Regarding `COc1cccc(-c2ccccc2S(=O)(=O)N2CCC(F)(C(=O)N[C@@H](C)/C=C\S(C)(=O)=O)CC2)c1` [Compound 19, (S,Z)-4-fluoro-1-((3′-methoxy-[1,1′-biphenyl]-2-yl)sulfonyl)-N-(4-(methylsulfonyl)but-3-en-2-yl)piperidine-4-carboxamide], the IC50 amounted to 744 nM.

For `CCOCc1cccc(-c2cc(Cl)ccc2S(=O)(=O)N2CCC(F)(C(=O)N[C@@H](C)/C=C\S(C)(=O)=O)CC2)c1` [Compound 17, (S,Z)-1-((5-chloro-3′-(ethoxymethyl)-[1,1′-biphenyl]-2-yl)sulfonyl)-4-fluoro-N-(4-(methylsulfonyl)but-3-en-2-yl)piperidine-4-carboxamide], the IC50 came out at 760 nM.

In the case of `C[C@@H]1C[C@](F)(C(=O)NC/C=C\C(=O)N2CC(F)(F)C2)CCN1S(=O)(=O)c1cnc(C(F)(F)F)cc1-c1ccccc1Cl` [Compound 289, (2R,4S)-1-((4-(2-chlorophenyl)-6-(trifluoromethyl)pyridin-3-yl)sulfonyl)-N-((Z)-4-(3,3-difluoroazetidin-1-yl)-4-oxobut-2-en-1-yl)-4-fluoro-2-methylpiperidine-4-carboxamide], the IC50 amounted to 460 nM.

Take `C[C@@H](/C=C\C(=O)N1CC(F)(F)C1)NC(=O)C1(F)CCN(S(=O)(=O)c2ccc(Br)cc2-c2ccccc2Cl)CC1` [Compound 287, (S,Z)-1-((5-bromo-2′-chloro-[1,1′-biphenyl]-2-yl)sulfonyl)-N-(5-(3,3-difluoroazetidin-1-yl)-5-oxopent-3-en-2-yl)-4-fluoropiperidine-4-carboxamide]: the IC50 came to 830 nM.

`COc1ccc(S(=O)(=O)N2CC[C@](F)(C(=O)N[C@H](C)/C=C\S(C)(=O)=O)C[C@H]2C)c(-c2ccccc2Cl)c1` (single isomer, unassigned) [Compound 147, (2*R,4*R)-1-((2′-chloro-5-methoxy-[1,1′-biphenyl]-2-yl)sulfonyl)-4-fluoro-2-methyl-N-((R,Z)-4-(methylsulfonyl)but-3-en-2-yl)piperidine-4-carboxamide]: the IC50 is 390 nM.

In the case of `Cc1cccc(-c2cc(Br)ccc2S(=O)(=O)N2CCC(F)(C(=O)N[C@H](C)/C=C\S(C)(=O)=O)CC2)c1Cl` [Compound 59, (R,Z)-1-((5-bromo-2′-chloro-3′-methyl-[1,1′-biphenyl]-2-yl)sulfonyl)-4-fluoro-N-(4-(methylsulfonyl)but-3-en-2-yl)piperidine-4-carboxamide], the IC50 came to 710 nM.

Turning to `Cc1c(F)cccc1-c1cc(Br)ccc1S(=O)(=O)N1CCC(F)(C(=O)N[C@H](C)/C=C\S(C)(=O)=O)CC1` [Compound 56, (R,Z)-1-((5-bromo-3′-fluoro-2′-methyl-[1,1′-biphenyl]-2-yl)sulfonyl)-4-fluoro-N-(4-(methylsulfonyl)but-3-en-2-yl)piperidine-4-carboxamide], the IC50 is 150 nM.

On to `C[C@H](/C=C\S(C)(=O)=O)NC(=O)C1(F)CCN(S(=O)(=O)c2ccc(CCO)cc2-c2ccccc2Cl)CC1` [Compound 128, (R,Z)-1-((2′-chloro-5-(2-hydroxyethyl)-[1,1′-biphenyl]-2-yl)sulfonyl)-4-fluoro-N-(4-(methylsulfonyl)but-3-en-2-yl)piperidine-4-carboxamide], for which the IC50 was determined as 280 nM.

Turning to `COc1ccc(C(=O)N2CCC[C@](F)(C(=O)N[C@H](C)/C=C\S(C)(=O)=O)CC2)c(-c2ccccc2Cl)c1` [Compound 295, (R)-1-(2′-chloro-5-methoxy-[1,1′-biphenyl]-2-carbonyl)-4-fluoro-N-((R,Z)-4-(methylsulfonyl)but-3-en-2-yl)azepane-4-carboxamide], the IC50 turned out to be 350 nM.

For the compound `C[C@H](/C=C\S(C)(=O)=O)NC(=O)C1(F)CCN(S(=O)(=O)c2ccc(Br)cc2-c2ccccc2C(F)(F)F)CC1` [Compound 54, (R,Z)-1-((5-bromo-2′-(trifluoromethyl)-[1,1′-biphenyl]-2-yl)sulfonyl)-4-fluoro-N-(4-(methylsulfonyl)but-3-en-2-yl)piperidine-4-carboxamide], the IC50 was found to be 860 nM.

Turning to `C[C@H](/C=C\[S@](C)(=N)=O)NC(=O)C1(F)CCN(S(=O)(=O)c2ccc(Br)cc2-c2ccccc2Cl)CC1` (single isomer, unassigned) [Compound 74, 1-((5-bromo-2′-chloro-[1,1′-biphenyl]-2-yl)sulfonyl)-4-fluoro-N-((R,Z)-4-((*R)-S-methylsulfonimidoyl)but-3-en-2-yl)piperidine-4-carboxamide], the IC50 is 410 nM.

For `C[C@@H](/C=C\S(C)(=O)=O)NC(=O)C1(F)CCN(S(=O)(=O)c2ccc(C(F)(F)F)cc2-c2ccccc2Cl)CC1` [Compound 18, (S,Z)-1-((2′-chloro-5-(trifluoromethyl)-[1,1′-biphenyl]-2-yl)sulfonyl)-4-fluoro-N-(4-(methylsulfonyl)but-3-en-2-yl)piperidine-4-carboxamide], the IC50 was 38 nM.

Consider `COc1ccc(S(=O)(=O)N2CC[C@](F)(C(=O)N[C@H](C)/C=C\S(C)(=O)=O)CC2(C)C)c(-c2ccccc2Cl)c1` (single isomer, unassigned) [Compound 150, (*R)-1-((2′-chloro-5-methoxy-[1,1′-biphenyl]-2-yl)sulfonyl)-4-fluoro-2,2-dimethyl-N-((R,Z)-4-(methylsulfonyl)but-3-en-2-yl)piperidine-4-carboxamide], for which the IC50 was 310 nM.
